Consider nine compounds from US11713338B2, “Cyclic peptides multimers targeting α-4-β-7 integrin” (priority 2016, dated 2023).

Assay [1] deals with T1, integrin α4β1 (RAMOS human cells adhering to VCAM-1) (Homo sapiens, UniProt P05556+P13612).
T1 construct: Ramos cells, which express integrin α4β1; host or cells: RAMOS
The experiment in a line: Integrin α4β1-VCAM cell adhesion assay (RAMOS cells). It is filed as cell-based. Particulars: for IC50: Ramos cells adhering to VCAM, read-out: Ramos Adhesion α4β1/VCAM IC50; for Ratio Ramos/RPMI: ratio of cell adhesion IC50s, Ramos α4β1/VCAM over RPMI8866 α4β7/MAdCAM. Put shortly:
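Human RAMOS cells loaded with calcein ([…] in PBS, 37° C, 30 min) allowed to adhere to VCAM-1-coated wells blocked with 1% milk. After PBS washes, adherent-cell fluorescence measured and cell-free well background subtracted to build dose-response.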

Assay [2] addresses T2, recombinant integrin α4β7 (Homo sapiens, UniProt P13612+P26010, DEL724-798).
T2 construct: purchased R&D Systems 5397-A3-050
T2 sequence (P13612 34-970 limits assumed): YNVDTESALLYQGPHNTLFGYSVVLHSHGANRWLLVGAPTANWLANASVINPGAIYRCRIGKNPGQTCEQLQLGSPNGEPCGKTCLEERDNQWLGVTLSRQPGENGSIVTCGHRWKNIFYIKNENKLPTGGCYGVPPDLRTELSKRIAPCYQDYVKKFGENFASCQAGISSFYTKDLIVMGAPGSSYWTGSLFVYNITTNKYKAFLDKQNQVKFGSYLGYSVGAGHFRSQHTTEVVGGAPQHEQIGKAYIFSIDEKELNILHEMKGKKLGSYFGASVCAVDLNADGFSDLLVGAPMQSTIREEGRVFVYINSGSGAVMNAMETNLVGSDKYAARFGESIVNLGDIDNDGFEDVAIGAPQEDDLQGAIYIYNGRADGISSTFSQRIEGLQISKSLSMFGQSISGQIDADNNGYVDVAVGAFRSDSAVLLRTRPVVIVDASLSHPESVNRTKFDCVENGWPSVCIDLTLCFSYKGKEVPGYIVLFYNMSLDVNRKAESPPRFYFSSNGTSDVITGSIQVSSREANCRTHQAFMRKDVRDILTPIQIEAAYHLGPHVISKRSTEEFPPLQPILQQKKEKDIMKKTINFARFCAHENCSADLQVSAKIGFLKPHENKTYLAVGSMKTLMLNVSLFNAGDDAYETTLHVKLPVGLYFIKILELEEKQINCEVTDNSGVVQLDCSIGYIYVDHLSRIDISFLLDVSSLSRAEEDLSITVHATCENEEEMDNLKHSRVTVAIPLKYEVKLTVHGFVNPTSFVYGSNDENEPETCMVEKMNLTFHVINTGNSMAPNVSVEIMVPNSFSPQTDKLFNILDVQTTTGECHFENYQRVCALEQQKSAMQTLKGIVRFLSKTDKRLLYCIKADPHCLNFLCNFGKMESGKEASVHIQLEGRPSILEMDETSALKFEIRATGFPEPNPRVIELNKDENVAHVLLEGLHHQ
T2 sequence (P26010 20-723 limits assumed): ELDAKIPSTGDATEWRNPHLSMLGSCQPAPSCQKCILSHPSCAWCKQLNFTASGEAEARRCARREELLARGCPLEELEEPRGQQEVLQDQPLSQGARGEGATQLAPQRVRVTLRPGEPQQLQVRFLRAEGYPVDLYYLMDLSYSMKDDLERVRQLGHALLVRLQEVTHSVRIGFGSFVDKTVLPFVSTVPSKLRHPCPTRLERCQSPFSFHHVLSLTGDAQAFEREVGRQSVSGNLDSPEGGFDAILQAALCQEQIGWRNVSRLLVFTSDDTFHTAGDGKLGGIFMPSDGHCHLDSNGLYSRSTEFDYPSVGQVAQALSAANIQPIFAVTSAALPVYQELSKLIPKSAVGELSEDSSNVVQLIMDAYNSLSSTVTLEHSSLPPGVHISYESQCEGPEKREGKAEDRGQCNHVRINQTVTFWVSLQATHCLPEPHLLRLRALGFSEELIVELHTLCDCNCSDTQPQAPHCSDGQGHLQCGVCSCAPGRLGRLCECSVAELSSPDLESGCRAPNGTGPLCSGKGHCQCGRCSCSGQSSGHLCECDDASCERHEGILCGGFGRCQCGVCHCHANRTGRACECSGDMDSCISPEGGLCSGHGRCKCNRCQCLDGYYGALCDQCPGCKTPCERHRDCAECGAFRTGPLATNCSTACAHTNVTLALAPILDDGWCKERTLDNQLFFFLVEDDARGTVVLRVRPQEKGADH
The experiment in a line: Integrin α4β7—MAdCAM-1 ELISA competition assay. It is filed as binding. The note with it: read-out: ELISA α4β7 Assay IC50. A general note: ELISA stands for enzyme-linked immunosorbent assay.

Assay [3] addresses T3, recombinant integrin α4β1 (Homo sapiens, UniProt P05556+P13612).
T3 construct: purchased R&D Systems 5397-A3-050
The experiment in a line: Integrin α4β1—VCAM-1 competition ELISA. The note with it: for ELISA Assay Ratio β1/β7: ratio of ELISA IC50s, α4β1 over α4β7; for IC50: read-out: ELISA α4β1 Assay IC50. It is filed as binding. Put shortly: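 Compound dilutions added to coated plate and shaken at room temperature for 2 h (300 rpm) to binding equilibrium. Wash buffer: 50 mM Tris, 100 mM NaCl, 1 mM MnCl2, 0.05% Tween. Bound Fc-tagged ligand detected with anti-human IgG Fc-HRP, 1 h at room temperature.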

T3 sequence (P05556 21-728 limits assumed, one chain of several): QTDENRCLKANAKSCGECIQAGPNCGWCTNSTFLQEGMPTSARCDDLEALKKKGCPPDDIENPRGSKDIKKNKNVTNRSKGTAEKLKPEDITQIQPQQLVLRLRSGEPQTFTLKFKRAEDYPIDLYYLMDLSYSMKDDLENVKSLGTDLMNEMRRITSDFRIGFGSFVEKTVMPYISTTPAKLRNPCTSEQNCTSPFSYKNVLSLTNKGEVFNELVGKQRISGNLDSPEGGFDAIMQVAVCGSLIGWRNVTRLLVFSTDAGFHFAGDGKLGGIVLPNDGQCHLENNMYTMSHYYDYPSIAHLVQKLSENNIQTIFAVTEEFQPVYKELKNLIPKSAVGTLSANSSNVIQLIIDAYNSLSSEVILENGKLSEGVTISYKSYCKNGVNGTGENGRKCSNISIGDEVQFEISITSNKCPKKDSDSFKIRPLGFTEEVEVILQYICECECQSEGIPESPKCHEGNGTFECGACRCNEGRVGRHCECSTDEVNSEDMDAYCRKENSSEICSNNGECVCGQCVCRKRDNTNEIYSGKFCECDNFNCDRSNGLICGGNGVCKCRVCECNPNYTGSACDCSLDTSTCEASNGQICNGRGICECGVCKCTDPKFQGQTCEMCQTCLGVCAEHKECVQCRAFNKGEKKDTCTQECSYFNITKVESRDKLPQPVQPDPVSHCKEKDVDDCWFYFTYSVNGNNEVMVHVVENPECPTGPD
T1 sequence (P13612 34-1032): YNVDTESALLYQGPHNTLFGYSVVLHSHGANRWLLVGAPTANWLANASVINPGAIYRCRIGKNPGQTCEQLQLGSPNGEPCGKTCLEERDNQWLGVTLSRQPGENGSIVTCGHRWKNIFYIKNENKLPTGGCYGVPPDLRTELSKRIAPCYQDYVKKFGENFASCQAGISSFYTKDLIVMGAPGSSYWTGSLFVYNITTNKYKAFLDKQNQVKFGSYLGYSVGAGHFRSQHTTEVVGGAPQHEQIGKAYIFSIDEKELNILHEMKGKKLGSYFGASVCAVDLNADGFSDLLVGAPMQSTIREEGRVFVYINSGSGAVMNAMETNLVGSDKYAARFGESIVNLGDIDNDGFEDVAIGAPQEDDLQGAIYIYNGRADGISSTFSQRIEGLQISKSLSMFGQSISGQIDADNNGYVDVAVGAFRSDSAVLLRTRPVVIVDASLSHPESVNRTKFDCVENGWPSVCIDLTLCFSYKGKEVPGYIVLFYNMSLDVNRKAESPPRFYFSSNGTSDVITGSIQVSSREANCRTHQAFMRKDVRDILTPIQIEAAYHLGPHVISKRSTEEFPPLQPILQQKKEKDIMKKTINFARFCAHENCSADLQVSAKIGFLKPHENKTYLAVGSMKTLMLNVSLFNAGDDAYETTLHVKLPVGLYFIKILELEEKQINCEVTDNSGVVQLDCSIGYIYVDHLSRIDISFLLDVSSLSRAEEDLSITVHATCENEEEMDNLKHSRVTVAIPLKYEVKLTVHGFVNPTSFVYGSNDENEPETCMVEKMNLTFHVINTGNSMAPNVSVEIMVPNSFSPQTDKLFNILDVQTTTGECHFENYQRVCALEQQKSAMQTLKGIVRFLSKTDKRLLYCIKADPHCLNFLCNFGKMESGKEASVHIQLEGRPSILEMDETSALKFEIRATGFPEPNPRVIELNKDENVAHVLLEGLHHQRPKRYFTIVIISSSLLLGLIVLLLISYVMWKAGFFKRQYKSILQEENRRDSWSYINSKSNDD
T1 sequence (P05556 21-798): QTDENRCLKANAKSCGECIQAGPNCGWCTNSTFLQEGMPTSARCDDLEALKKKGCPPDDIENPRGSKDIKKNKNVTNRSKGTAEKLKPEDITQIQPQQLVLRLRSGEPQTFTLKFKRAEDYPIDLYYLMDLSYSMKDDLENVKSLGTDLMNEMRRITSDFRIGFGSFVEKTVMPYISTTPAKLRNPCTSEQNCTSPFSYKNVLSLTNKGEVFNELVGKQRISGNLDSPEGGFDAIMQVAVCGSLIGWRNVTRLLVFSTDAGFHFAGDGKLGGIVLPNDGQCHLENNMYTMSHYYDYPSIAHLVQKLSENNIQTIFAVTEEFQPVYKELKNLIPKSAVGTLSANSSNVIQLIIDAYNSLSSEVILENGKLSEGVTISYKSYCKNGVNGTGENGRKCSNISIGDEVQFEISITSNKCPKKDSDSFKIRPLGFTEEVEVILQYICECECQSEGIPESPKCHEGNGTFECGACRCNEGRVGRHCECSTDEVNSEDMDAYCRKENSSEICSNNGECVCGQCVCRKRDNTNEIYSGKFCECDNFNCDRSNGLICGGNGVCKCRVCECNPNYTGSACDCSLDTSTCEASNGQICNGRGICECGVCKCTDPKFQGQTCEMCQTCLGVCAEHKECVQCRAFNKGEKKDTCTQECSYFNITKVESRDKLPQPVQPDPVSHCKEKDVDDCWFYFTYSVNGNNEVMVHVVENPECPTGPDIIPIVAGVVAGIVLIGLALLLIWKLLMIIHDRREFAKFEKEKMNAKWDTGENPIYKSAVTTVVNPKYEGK

With `CC(C)C[C@@H]1NC(=O)C[C@H](CCCCN)N(C)C(=O)[C@H](CCCCNC(=O)CCOCCOCCOCCOCCOCCOCCOCCC(=O)NCCCC[C@@H]2NC(=O)[C@@H]3CCCN3[C@H](C(=O)NC(C)(C)C)[C@H](C)NC(=O)[C@H]([C@@H](C)O)NC(=O)[C@H](CC(=O)O)NC(=O)[C@H](CC(C)C)NC(=O)C[C@H](CCCCN)N(C)C2=O)NC(=O)[C@@H]2CCCN2[C@H](C(=O)NC(C)(C)C)[C@H](C)NC(=O)[C@H]([C@@H](C)O)NC(=O)[C@H](CC(=O)O)NC1=O` [Compound 536], in assay [1], the IC50 amounted to 7820 nM and the “Ratio Ramos/RPMI” value is recorded as 479. The IC50 in assay [2] was found to be 9.5 nM. Moreover, in assay [3], the “ELISA Assay Ratio β1/β7” value came to 0.9 and the IC50 amounted to 8.9 nM.

`CC(C)C[C@@H]1NC(=O)C[C@H](CCCCN)N(C)C(=O)[C@H](CCCCNC(=O)c2ccccc2-c2ccccc2C(=O)NCCCC[C@@H]2NC(=O)[C@@H]3CCCN3[C@H](C(=O)NC(C)(C)C)[C@H](C)NC(=O)[C@H]([C@@H](C)O)NC(=O)[C@H](CC(=O)O)NC(=O)[C@H](CC(C)C)NC(=O)C[C@H](CCCCN)N(C)C2=O)NC(=O)[C@@H]2CCCN2[C@H](C(=O)NC(C)(C)C)[C@H](C)NC(=O)[C@H]([C@@H](C)O)NC(=O)[C@H](CC(=O)O)NC1=O` [Compound 535]: in assay [1], the IC50 amounted to 9510 nM and the “Ratio Ramos/RPMI” value was 634. The IC50 in assay [2] came out at 8.6 nM. For the same compound, in assay [3], the “ELISA Assay Ratio β1/β7” value turned out to be 0.9 and the IC50 was determined as 9.7 nM.

Take `CC(C)C[C@@H]1NC(=O)c2ccc(-c3ccc(N4CCN(C(=O)c5nccnc5C(=O)N5CCN(c6ccc(-c7ccc8cc7CNC(=O)[C@@H]7CCCN7[C@H](C(=O)NC(C)(C)C)[C@H](C)NC(=O)[C@H]([C@@H](C)O)NC(=O)[C@H](CC(=O)O)NC(=O)[C@H](CC(C)C)NC8=O)cc6)CC5)CC4)cc3)c(c2)CNC(=O)[C@@H]2CCCN2[C@H](C(=O)NC(C)(C)C)[C@H](C)NC(=O)[C@H]([C@@H](C)O)NC(=O)[C@H](CC(=O)O)NC1=O` [Compound 467]: in assay [1], the IC50 worked out at 876 nM and the “Ratio Ramos/RPMI” value was 20. In assay [2], the IC50 came out at 8.6 nM. Further, in assay [3], the “ELISA Assay Ratio β1/β7” value is listed as 0.1 and the IC50 turned out to be 1 nM.

For `CC(C)C[C@@H]1NC(=O)c2ccc(-c3ccc(N4CCN(CC(=O)N5CCN(c6ccc(-c7ccc8cc7CNC(=O)[C@@H]7CCCN7[C@H](C(=O)NC(C)(C)C)[C@H](C)NC(=O)[C@H]([C@@H](C)O)NC(=O)[C@H](CC(=O)O)NC(=O)[C@H](CC(C)C)NC8=O)cc6)CC5)CC4)cc3)c(c2)CNC(=O)[C@@H]2CCCN2[C@H](C(=O)NC(C)(C)C)[C@H](C)NC(=O)[C@H]([C@@H](C)O)NC(=O)[C@H](CC(=O)O)NC1=O` [Compound 481], the IC50 in assay [1] worked out at 940 nM; in assay [2], 7.1 nM; in assay [3], 1.6 nM. In assay [1], the “Ratio Ramos/RPMI” value is given as 26. Besides, the “ELISA Assay Ratio β1/β7” value in assay [3] is given as 0.2.

For `CC(C)C[C@@H]1NC(=O)C[C@H](CCCCN)N(C)C(=O)[C@H](CCCCNC(=O)CCCCCC(=O)NCCCC[C@@H]2NC(=O)[C@@H]3CCCN3[C@H](C(=O)NC(C)(C)C)[C@H](C)NC(=O)[C@H]([C@@H](C)O)NC(=O)[C@H](CC(=O)O)NC(=O)[C@H](CC(C)C)NC(=O)C[C@H](CCCCN)N(C)C2=O)NC(=O)[C@@H]2CCCN2[C@H](C(=O)NC(C)(C)C)[C@H](C)NC(=O)[C@H]([C@@H](C)O)NC(=O)[C@H](CC(=O)O)NC1=O` [Compound 532], the IC50 in assay [1] came out at 7150 nM; in assay [2], 6.1 nM; in assay [3], 6.9 nM.

As to `CC(C)C[C@@H]1NC(=O)C[C@H](CCCCN)N(C)C(=O)[C@H](CCCCNC(=O)CCCCCCCC(=O)NCCCC[C@@H]2NC(=O)[C@@H]3CCCN3[C@H](C(=O)NC(C)(C)C)[C@H](C)NC(=O)[C@H]([C@@H](C)O)NC(=O)[C@H](CC(=O)O)NC(=O)[C@H](CC(C)C)NC(=O)C[C@H](CCCCN)N(C)C2=O)NC(=O)[C@@H]2CCCN2[C@H](C(=O)NC(C)(C)C)[C@H](C)NC(=O)[C@H]([C@@H](C)O)NC(=O)[C@H](CC(=O)O)NC1=O` [Compound 533], in assay [1], the IC50 is 4230 nM and the “Ratio Ramos/RPMI” value worked out at 257. In assay [2], the IC50 stood at 5 nM. In addition, in assay [3], the “ELISA Assay Ratio β1/β7” value is on record as 1.2 and the IC50 is 6.2 nM.

With `CC(C)C[C@@H]1NC(=O)c2ccc(-c3ccc(N4CCN(C(=O)COCC(=O)N5CCN(c6ccc(-c7ccc8cc7CNC(=O)[C@@H]7CCCN7[C@H](C(=O)NC(C)(C)C)[C@H](C)NC(=O)[C@H]([C@@H](C)O)NC(=O)[C@H](CC(=O)O)NC(=O)[C@H](CC(C)C)NC8=O)cc6)CC5)CC4)cc3)c(c2)CNC(=O)[C@@H]2CCCN2[C@H](C(=O)NC(C)(C)C)[C@H](C)NC(=O)[C@H]([C@@H](C)O)NC(=O)[C@H](CC(=O)O)NC1=O` [Compound 390], in assay [1], the IC50 came to 857 nM and the “Ratio Ramos/RPMI” value is 66. In addition, the IC50 in assay [2] was determined as 8.3 nM. For the same compound, in assay [3], the “ELISA Assay Ratio β1/β7” value was 0.2 and the IC50 was 2 nM.

As to `CC(C)C[C@@H]1NC(=O)c2ccc(-c3ccc(N4CCN(C(=O)c5ccc(-c6ccc(C(=O)N7CCN(c8ccc(-c9ccc%10cc9CNC(=O)[C@@H]9CCCN9[C@H](C(=O)NC(C)(C)C)[C@H](C)NC(=O)[C@H]([C@@H](C)O)NC(=O)[C@H](CC(=O)O)NC(=O)[C@H](CC(C)C)NC%10=O)cc8)CC7)cc6)cc5)CC4)cc3)c(c2)CNC(=O)[C@@H]2CCCN2[C@H](C(=O)NC(C)(C)C)[C@H](C)NC(=O)[C@H]([C@@H](C)O)NC(=O)[C@H](CC(=O)O)NC1=O` [Compound 474], in assay [1], the IC50 was determined as 1300 nM and the “Ratio Ramos/RPMI” value is on record as 95. For the same compound, the IC50 in assay [2] is 19 nM. Moreover, in assay [3], the “ELISA Assay Ratio β1/β7” value came to 0.4 and the IC50 stood at 7.1 nM.

Take `CC(C)C[C@@H]1NC(=O)C[C@H](CCCCN)N(C)C(=O)[C@H](CCCCNC(=O)CCCCCCCCC(=O)NCCCC[C@@H]2NC(=O)[C@@H]3CCCN3[C@H](C(=O)NC(C)(C)C)[C@H](C)NC(=O)[C@H]([C@@H](C)O)NC(=O)[C@H](CC(=O)O)NC(=O)[C@H](CC(C)C)NC(=O)C[C@H](CCCCN)N(C)C2=O)NC(=O)[C@@H]2CCCN2[C@H](C(=O)NC(C)(C)C)[C@H](C)NC(=O)[C@H]([C@@H](C)O)NC(=O)[C@H](CC(=O)O)NC1=O` [Compound 530]: in assay [1], the IC50 worked out at 10600 nM and the “Ratio Ramos/RPMI” value turned out to be 704. Besides, in assay [2], the IC50 was 5.3 nM. Moreover, in assay [3], the “ELISA Assay Ratio β1/β7” value is given as 1.0 and the IC50 was determined as 5.1 nM.
